This passage reports IC50 results from patent publication US5476944A, “Derivatives of cyclic phenolic thioethers” (G. D. Searle & Co., priority 1994, dated 1995).

For this assay, the target named is T1, COX-I (Homo sapiens, UniProt P23219).
T1 construct: made in house; host or cells: SF9 insect cells, recombinant baculovirus (pVL1393); coding fragment from Cayman Chemical
In words: Human Enzyme Assay, recombinant COX-I (PGE2 ELISA). Type of assay: biochemical. How it is done:
The compounds of the invention are evaluated with respect to COX-I and COX-II activity in vitro using an enzyme based assay according to the following assay procedure.
(a) Preparation of Recombinant COX Baculoviruses
A 2.0 kb fragment containing the coding region for either human or murine COX-I (Caymen Chemical, Ann Arbor, Mich.), or human or murine COX-II (Caymen Chemical, Ann Arbor, Mich.), was cloned into a BamH1 site of the baculovirus transfer vector pVL1393 (Invitrogen, Palo Alto, Calif.) to generate a baculovirus transfer vector. Recombinant baculoviruses were isolated by transfecting 4 μg of baculovirus transfer vector DNA into SF9 cells (2×10e8) (Invitrogen, Palo Alto, Calif.) along with 200 ng of linearized bacium by the phosphate method. See M. D. Summers et al., "A Manual of Methods for Baculovirus Vectors and Insect Cell Culture Procedure," TEXAS AGRICULTURE EXPERIMENTAL STATION BULLETIN, No. 1555 (1987), which is incorporated herein by reference. Recombinant viruses were purified by three rounds of plaque purification, and high titer (10e7-10e8 pfu/ml) stocks of virus were prepared. For large scale production, SF9 insect cells (Invitrogen, Palo Alto, Calif.) were infected in 10 liter fermentors (0.5×10^6 /ml) with the recombinant baculovirus stock, such that the multiplicity of infection was 0.1. After 72 hours, the cells were centrifuged and the cell pellet was homogenized in Tris/Sucrose (50 mM: 25%, pH 8.0) containing 1% CHAPS. The homogenate was centrifuged at 10,000×G for 30 minutes, and the resultant supernatant was stored at -80° C. before being assayed for COX activity.
b. Assay for COX-I and COX-II activity:
COX activity was assayed as PGE2 formed/μg protein/time using an ELISA (Caymen Chemical, Ann Arbor, Mich.) to detect the prostaglandin E2 released. CHAPS-solubilized insect cell membranes containing the appropriate COX enzyme were incubated in a potassium phosphate buffer (50 mM, pH 8.0) containing phenol (0.5 mM), and heme (1 μM) with the addition of arachidonic acid (10 μM). Compounds of the present invention were pre-incubated with the enzyme for 10-20 minutes prior to the addition of the COX-I and COX-II enzyme substrate arachidonic acid (10 μM). Any reaction between the arachidonic acid and the enzyme was stopped after ten minutes at 37° C./room temperature by transferring 40 μl of reaction mix into […] ELISA buffer and 25 μM indomethacin. The PGE2 formed was measured by standard ELISA technology (Cayman Chemical, Ann Arbor, Mich.).
The results for this assay, as well as for the next assay (COX-II Cell Fibroblast Assay) are expressed in terms of COX-I or II activity as an IC50 value (50% inhibitory concentration), as defined as the amount of prostaglandin E2 (PGE2) formed per protein per time in response to the enzyme substrate arachidonic acid.
On the technique in general: An ELISA detects its analyte on a solid surface through an enzyme-linked reagent.

T1 sequence (P23219 24-599): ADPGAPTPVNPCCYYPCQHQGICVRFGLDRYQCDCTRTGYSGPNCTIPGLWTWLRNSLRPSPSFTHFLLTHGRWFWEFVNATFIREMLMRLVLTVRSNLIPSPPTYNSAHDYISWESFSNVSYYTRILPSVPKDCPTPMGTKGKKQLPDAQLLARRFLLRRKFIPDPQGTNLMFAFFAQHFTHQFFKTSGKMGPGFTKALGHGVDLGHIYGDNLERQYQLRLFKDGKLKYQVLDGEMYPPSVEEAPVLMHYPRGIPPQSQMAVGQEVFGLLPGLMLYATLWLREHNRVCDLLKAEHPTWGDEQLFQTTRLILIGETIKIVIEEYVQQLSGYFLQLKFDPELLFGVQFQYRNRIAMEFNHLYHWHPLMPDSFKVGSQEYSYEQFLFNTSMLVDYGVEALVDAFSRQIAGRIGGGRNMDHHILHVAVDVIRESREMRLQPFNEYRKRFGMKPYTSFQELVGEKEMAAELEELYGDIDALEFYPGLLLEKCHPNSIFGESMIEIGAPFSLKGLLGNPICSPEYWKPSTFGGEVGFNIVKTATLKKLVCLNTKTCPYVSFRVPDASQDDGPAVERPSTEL

As usually defined, the IC50 is the concentration that gives 50% inhibition. `CC(C)(C)c1cc(S[C@H]2CCCC[C@H]2OCC(=O)O)cc(C(C)(C)C)c1` (racemic) [Example 72, (±)cis-2-[[2-[[3,5-bis(1,1-dimethylethyl)phenyl]thio]cyclohexyl]oxy]acetic acid]: the IC50 was above 100 µM.
